Measured values taken from patent publication US9309242B2, “Substituted pyrido[2,3-b]pyrazines as FGFR kinase inhibitors” (priority 2011, dated 2016).
Structures can show the parent of a compound that is named as a salt.

What was measured:
[1] = target: T1, Ba/F3-FGFR3-transfected cells (Homo sapiens, UniProt P22607); test: Ba/F3-FGFR3 (minus IL3) cellular proliferation assay, Alamar Blue; type: cell-based
T1 construct: BAF3-FGFR3 (MIN IL3) pIC50; other: minus IL3
Method: (§1) Ba/F3-FGFR3 (Minus IL3 or Plus IL3) (Cellular Proliferation Assay)
(§2) In a 384 well plate, 100 nl of compound dilution in DMSO was sprayed before adding 50 μl cell culture medium (phenol red free RPMI-1640, 10% FBS, 2 mM L-Glutamine and 50 μg/ml Gentamycin) containing 20000 cells per well of Ba/F3-FGFR3-transfected cells. Cells were put in an incubator at 37° C. and 5% CO2. After 24 hours, 10 μl of Alamar Blue solution (0.5 mM K3Fe(CN)6, 0.5 mM K4Fe(CN)6, 0.15 mM Resazurin and 100 mM Phosphate Buffer) was added to the wells, incubated for 4 hours at 37° C. and 5% CO2 before RFU's (Relative Fluorescence Units) (ex. 540 nm., em. 590 nm.) were measured in a fluororescence plate reader. […]

[2] = target: T2, Ba/F3-FGFR1-transfected cells (Homo sapiens, UniProt P11362); test: Ba/F3-FGFR1 (minus IL3) cellular proliferation assay, Alamar Blue; type: cell-based
T2 construct: BAF3-FGFR1 (MIN IL3) pIC50; other: minus IL3
Method: (§3) Ba/F3-FGFR1 (Minus IL3 or Plus IL3) (Cellular Proliferation Assay)
(§4) In a 384 well plate, 100 nl of compound dilution in DMSO was sprayed before adding 50 μl cell culture medium (phenol red free RPMI-1640, 10% FBS, 2 mM L-Glutamine and 50 μg/ml Gentamycin) containing 20000 cells per well of Ba/F3-FGFR1-transfected cells. Cells were put in an incubator at 37° C. and 5% CO2. After 24 hours, 10 μl of Alamar Blue solution (0.5 mM K3Fe(CN)6, 0.5 mM K4Fe(CN)6, 0.15 mM Resazurin and 100 mM Phosphate Buffer) was added to the wells, incubated for 4 hours at 37° C. and 5% CO2 before RFU's (Relative Fluorescence Units) (ex. 540 nm., em. 590 nm.) were measured in a fluororescence plate reader.

FGFR2 (h) = FGFR2 (h) (Homo sapiens, UniProt P21802); test: FGFR2 (enzymatic assay), TR-FRET; type: biochemical; conditions: enzymatic assay; average values if tested multiple times; read-out: FGFR 2 pIC50 (converted)
Method: In a final reaction volume of 30 μL, FGFR2 (h) (150 ng/ml) was incubated with 50 mM HEPES pH 7.5, 6 mM MnCl2, 1 mM DTT, 0.1 mM Na3VO4, 0.01% Triton-X-100, 500 nM Btn-Flt3 and 0.4 μM ATP in the presence of compound (1% DMSO final).

[3] = system: Ba/F3-KDR-transfected cells; test: Ba/F3-KDR (plus IL3) cellular proliferation assay, counterscreen with 10 ng/ml murine IL3; type: cell-based; conditions: plus IL3 (10 ng/ml murine IL3, counterscreen)
Method: (§5) Ba/F3-KDR (Minus IL3 or Plus IL3) (Cellular Proliferation Assay)
as §4, with “n1” for “nl”, “Ba/F3-KDR-transfected” for “Ba/F3-FGFR1-transfected”
(§6) As a counterscreen the same experiment was performed in the presence of 10 ng/ml murine IL3.

[4] = target: T3, Ba/F3-KDR-transfected cells (Homo sapiens, UniProt P35968); test: Ba/F3-KDR (minus IL3) cellular proliferation assay, Alamar Blue; type: cell-based
T3 construct: BAF3-KDR (MIN IL3) pIC50; other: minus IL3
Method: as §5
as §2, with “n1” for “nl”, “Ba/F3-KDR-transfected” for “Ba/F3-FGFR3-transfected”

[5] = system: Ba/F3-FGFR1-transfected cells; test: Ba/F3-FGFR1 (plus IL3) cellular proliferation assay, counterscreen with 10 ng/ml murine IL3; type: cell-based; conditions: plus IL3 (10 ng/ml murine IL3, counterscreen)
Method: as §3, §4, §6

FGFR1 (h) = FGFR1 (h) (Homo sapiens, UniProt P11362); test: FGFR1 (enzymatic assay), TR-FRET; type: biochemical; conditions: average values if tested multiple times, read-out: FGFR 1 pIC50 (converted)
[6] = system: Ba/F3-FGFR3-transfected cells; test: Ba/F3-FGFR3 (plus IL3) cellular proliferation assay, counterscreen with 10 ng/ml murine IL3; type: cell-based; conditions: plus IL3 (10 ng/ml murine IL3, counterscreen)
Method: as §1
In a 384 well plate, 100 nl of compound dilution in DMSO was sprayed before adding 50 μl cell culture medium (phenol red free RPMI-1640, 10% FBS, 2 mM L-Glutamine and 50 μg/ml Gentamycin) containing 20000 cells per well of Ba/F3-FGFR3-transfected cells. Cells were put in an incubator at 37° C. and 5% CO2. After 24 hours, 10 μl of Alamar Blue solution (0.5 mM K3Fe(CN)6, 0.5 mM K4Fe(CN)6, 0.15 mM Resazurin and 100 mM Phosphate Buffer) was added to the wells, incubated for 4 hours at 37° C. and 5% CO2 before RFU's (Relative Fluorescence Units) (ex. 540 nm., em. 590 nm.) were measured in a fluororescence plate reader.
as §6

FGFR4 (h) = FGFR4 (h) (Homo sapiens, UniProt P22455); test: FGFR4 (enzymatic assay), TR-FRET; type: biochemical; conditions: FGFR 4 pIC50, enzymatic assay; average values if tested multiple times
FGFR3 (h) = FGFR3 (h) (Homo sapiens, UniProt P22607); test: FGFR3 (enzymatic assay), TR-FRET; type: biochemical; conditions: average values if tested multiple times, read-out: FGFR 3 pIC50 (converted)
Text: Time-Resolved Fluorescence Resonance Energy Transfer (TR-FRET) signal (ex340 nm.

KDR (h) = KDR (h) (Homo sapiens, UniProt P35968); test: KDR (VEGFR2) (enzymatic assay), TR-FRET; type: biochemical; conditions: average values if tested multiple times, read-out: VEGFR 2 (KDR) pIC50 (converted)
Method: KDR (VEGFR2) (Enzymatic Assay)
In a final reaction volume of 30 μL, KDR (h) (150 ng/ml) was incubated with 50 mM HEPES pH 7.5, 6 mM MnCl2, 1 mM DTT, 0.1 mM Na3VO4, 0.01% Triton-X-100, 500 nM Btn-Flt3 and 3 μM ATP in the presence of compound (1% DMSO final). After incubation for 120 minutes at room temperature the reaction was stopped with 2.27 nM EU-anti P-Tyr, 7 mM EDTA, 31.25 nM SA-XL-665 and 0.02% BSA which was present for 60 minutes at room temperature. Time-Resolved Fluorescence Resonance Energy Transfer (TR-FRET) signal (ex340 nm. Em 620 nm, em 655 nm) was measured afterwards and results are expressed in RFU (Relative Fluorescence Units).

[7] = target: Ba/F3-FGFR4-transfected cells (Homo sapiens, UniProt P22455); test: Ba/F3-FGFR4 cellular proliferation assay, Alamar Blue; type: cell-based
Method: Ba/F3-FGFR4 (Cellular Proliferation Assay)
as §4, with “n1” for “nl”, “Ba/F3-FGFR4-transfected” for “Ba/F3-FGFR1-transfected”

FGFR2 (h), sequence (P21802 22-821): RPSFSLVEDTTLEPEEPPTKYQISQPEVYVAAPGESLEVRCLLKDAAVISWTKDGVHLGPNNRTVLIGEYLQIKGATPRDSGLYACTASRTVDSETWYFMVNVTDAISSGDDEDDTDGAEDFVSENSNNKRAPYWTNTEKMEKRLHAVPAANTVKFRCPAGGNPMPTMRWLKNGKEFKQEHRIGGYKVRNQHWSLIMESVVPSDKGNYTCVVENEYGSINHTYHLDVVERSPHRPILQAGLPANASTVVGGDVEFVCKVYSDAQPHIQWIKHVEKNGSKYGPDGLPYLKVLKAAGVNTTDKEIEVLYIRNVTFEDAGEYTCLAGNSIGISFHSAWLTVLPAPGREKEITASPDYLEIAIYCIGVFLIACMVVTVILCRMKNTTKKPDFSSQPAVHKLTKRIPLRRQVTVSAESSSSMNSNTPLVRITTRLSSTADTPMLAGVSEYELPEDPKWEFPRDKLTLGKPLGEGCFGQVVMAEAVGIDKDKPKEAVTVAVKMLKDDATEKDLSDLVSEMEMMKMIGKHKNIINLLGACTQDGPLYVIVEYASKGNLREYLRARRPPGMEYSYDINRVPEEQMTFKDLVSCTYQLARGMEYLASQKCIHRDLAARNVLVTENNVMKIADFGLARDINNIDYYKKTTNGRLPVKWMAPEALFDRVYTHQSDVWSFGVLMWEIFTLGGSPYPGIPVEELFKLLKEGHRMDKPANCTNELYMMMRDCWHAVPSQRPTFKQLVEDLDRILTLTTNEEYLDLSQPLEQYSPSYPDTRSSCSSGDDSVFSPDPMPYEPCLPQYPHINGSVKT
T2 sequence (P11362 whole entry, change not shown): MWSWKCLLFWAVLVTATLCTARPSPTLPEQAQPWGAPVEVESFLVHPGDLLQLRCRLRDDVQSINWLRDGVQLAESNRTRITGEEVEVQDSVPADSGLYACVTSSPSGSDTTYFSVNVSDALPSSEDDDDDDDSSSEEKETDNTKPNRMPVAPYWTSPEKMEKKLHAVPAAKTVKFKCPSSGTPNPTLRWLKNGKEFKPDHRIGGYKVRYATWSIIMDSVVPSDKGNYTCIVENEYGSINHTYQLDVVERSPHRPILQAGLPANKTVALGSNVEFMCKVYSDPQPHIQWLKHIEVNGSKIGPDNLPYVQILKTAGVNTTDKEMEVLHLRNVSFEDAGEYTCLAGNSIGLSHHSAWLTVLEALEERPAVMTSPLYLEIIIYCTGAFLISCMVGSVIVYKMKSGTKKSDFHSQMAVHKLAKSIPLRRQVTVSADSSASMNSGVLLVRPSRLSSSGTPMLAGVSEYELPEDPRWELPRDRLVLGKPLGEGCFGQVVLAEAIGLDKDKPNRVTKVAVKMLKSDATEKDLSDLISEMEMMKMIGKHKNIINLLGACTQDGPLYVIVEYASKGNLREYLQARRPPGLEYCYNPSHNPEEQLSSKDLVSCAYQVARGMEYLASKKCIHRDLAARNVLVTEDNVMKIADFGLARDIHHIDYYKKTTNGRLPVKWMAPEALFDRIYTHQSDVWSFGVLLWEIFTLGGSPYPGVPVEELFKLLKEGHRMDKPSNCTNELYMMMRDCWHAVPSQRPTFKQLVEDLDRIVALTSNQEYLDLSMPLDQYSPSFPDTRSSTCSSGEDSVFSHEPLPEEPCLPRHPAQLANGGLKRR
T3 sequence (P35968 whole entry, change not shown): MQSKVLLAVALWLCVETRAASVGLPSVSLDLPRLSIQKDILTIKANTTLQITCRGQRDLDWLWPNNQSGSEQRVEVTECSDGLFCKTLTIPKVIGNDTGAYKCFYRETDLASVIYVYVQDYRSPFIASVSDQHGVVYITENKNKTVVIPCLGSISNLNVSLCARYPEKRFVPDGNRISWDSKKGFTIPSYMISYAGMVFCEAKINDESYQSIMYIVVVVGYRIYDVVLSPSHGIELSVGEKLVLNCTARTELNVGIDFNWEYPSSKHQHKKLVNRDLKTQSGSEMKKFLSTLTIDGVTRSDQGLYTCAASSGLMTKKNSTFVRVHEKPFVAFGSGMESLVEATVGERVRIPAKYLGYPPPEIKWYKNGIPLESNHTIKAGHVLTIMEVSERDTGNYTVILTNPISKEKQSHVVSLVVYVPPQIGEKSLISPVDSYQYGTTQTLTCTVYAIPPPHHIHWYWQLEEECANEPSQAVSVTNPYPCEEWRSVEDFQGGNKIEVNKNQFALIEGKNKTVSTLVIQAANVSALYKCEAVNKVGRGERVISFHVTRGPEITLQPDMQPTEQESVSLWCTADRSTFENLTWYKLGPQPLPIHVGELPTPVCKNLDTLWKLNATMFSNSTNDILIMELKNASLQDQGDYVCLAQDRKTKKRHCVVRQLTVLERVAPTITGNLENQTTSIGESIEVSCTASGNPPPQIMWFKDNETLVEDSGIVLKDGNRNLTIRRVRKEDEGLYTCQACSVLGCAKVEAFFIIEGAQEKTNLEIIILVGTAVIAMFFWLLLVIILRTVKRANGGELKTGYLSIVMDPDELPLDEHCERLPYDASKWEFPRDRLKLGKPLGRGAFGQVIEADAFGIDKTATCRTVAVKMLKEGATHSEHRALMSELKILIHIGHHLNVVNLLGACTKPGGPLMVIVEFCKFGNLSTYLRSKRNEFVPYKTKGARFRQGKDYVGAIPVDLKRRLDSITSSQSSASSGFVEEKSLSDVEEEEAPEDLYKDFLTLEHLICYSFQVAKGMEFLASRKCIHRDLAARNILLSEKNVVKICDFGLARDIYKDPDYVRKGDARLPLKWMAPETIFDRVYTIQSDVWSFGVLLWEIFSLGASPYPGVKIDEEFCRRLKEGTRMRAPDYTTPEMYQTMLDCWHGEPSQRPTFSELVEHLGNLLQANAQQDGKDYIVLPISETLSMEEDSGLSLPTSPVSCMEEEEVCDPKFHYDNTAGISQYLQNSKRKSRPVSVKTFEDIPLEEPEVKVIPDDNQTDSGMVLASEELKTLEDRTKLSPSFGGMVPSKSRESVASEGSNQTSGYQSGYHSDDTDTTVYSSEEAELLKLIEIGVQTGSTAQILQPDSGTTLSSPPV
Ba/F3-FGFR4-transfected cells, sequence (P22455 whole entry, change not shown): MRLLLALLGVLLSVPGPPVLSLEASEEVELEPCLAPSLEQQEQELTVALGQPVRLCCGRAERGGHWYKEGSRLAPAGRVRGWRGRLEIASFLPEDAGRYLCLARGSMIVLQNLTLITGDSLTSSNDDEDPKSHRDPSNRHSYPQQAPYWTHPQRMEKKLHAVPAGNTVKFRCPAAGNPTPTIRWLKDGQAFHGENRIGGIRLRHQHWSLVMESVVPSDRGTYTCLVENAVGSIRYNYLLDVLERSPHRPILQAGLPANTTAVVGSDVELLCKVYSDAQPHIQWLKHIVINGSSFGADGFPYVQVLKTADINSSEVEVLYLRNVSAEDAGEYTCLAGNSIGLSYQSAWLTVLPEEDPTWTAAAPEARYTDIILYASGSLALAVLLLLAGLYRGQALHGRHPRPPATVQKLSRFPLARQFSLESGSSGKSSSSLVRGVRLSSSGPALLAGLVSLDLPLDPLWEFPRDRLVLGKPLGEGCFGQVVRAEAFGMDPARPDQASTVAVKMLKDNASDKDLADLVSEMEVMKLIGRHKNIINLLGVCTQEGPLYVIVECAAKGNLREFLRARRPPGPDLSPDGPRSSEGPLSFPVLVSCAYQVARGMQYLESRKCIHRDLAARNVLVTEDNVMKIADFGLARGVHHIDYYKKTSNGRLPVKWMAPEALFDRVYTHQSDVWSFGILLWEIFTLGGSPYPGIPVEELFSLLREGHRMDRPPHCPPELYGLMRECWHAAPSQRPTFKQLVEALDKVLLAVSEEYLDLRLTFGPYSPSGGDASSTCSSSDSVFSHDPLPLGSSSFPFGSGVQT
FGFR1 (h), sequence (P11362 22-822): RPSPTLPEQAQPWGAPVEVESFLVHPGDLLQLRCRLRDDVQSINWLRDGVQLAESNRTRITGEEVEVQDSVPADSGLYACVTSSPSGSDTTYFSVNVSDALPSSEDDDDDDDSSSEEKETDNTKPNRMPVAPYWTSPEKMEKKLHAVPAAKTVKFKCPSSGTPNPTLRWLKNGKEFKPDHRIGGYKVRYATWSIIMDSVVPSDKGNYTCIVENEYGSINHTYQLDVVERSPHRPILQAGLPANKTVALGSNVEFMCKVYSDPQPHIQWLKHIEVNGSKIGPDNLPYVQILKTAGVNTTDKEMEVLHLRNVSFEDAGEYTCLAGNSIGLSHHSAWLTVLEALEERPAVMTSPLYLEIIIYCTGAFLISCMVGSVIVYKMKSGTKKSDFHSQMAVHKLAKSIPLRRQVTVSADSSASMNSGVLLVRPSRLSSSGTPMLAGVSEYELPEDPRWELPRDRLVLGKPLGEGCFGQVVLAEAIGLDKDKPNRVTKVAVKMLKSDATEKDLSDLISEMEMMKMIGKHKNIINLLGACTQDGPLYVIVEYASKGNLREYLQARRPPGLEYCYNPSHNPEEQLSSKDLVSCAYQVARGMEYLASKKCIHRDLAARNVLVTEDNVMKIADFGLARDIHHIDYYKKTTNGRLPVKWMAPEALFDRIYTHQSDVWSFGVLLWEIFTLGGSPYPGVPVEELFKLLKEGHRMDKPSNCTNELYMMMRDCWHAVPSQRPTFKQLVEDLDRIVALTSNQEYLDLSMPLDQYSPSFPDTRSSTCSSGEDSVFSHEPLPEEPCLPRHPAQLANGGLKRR

SMILES | BAF3-FGFR3 (MIN IL3) pIC50 [1] | BAF3-FGFR1 (MIN IL3) pIC50 [2] | IC50 (FGFR2 (h)) | BAF3-KDR (PLUS IL3) pIC50 [3] | BAF3-KDR (MIN IL3) pIC50 [4] | BAF3-FGFR1 (PLUS IL3) pIC50 [5] | IC50 (FGFR1 (h)) | BAF3-FGFR3 (PLUS IL3) pIC50 [6] | IC50 (FGFR4 (h)) | IC50 (FGFR3 (h)) | IC50 (KDR (h)) | BAF3-FGFR4 pIC50 [7]
COc1cc(OC)c(F)c(N(Cc2ncc[nH]2)c2ccc3ncc(-c4cnn(C)c4)nc3n2)c1 [23-fumarate salt] | ~8.67 | 8.85 | 1.51 nM | <5 | 6.67 | <5 | 0.479 nM | <5 | 0.794 nM | ~0.891 nM | 5.13 nM | 7.94
COc1cc(OC)c(F)c(N(Cc2ncc[nH]2)c2ccc3ncc(-c4cnn(C)c4)nc3n2)c1 [23-hydrochloric acid salt] | ~8.58 | 8.81 | 1.41 nM | <5 | 6.68 | <5 | 0.437 nM | <5 | 0.851 nM | 0.776 nM | 6.76 nM | 7.98
COc1cc(OC)c(F)c(N(Cc2ncc[nH]2)c2ccc3ncc(-c4cnn(C)c4)nc3n2)c1 [23-lactate salt] | ~8.14 | 8.29 | 1.38 nM | <5 | 6.83 | <5 | 0.501 nM | <5 | 1.1 nM | 0.955 nM | 6.61 nM | 8.13
COc1cc(OC)c(F)c(N(Cc2ncc[nH]2)c2ccc3ncc(-c4cnn(C)c4)nc3n2)c1 [23-phosphate salt] | ~8.64 | 8.83 | 1.91 nM | <5 | 7.03 | <5 | 0.468 nM | <5 | 0.977 nM | 1.1 nM | 7.94 nM | 8.15
COc1cc(OC)cc(N(Cc2ncc[nH]2)c2ccc3ncc(-c4cnn(C)c4)nc3n2)c1 [24-fumarate salt] | ~8.61 | 8.46 | 1.26 nM | <5 | 6.38 | <5 | 0.631 nM | <5 | 1.2 nM | 0.851 nM | 11.7 nM | 7.85
COc1cc(OC)cc(N(Cc2ncc[nH]2)c2ccc3ncc(-c4cnn(C)c4)nc3n2)c1 [24-hydrochloric acid salt] | 7.96 | 8.16 | 1.41 nM | <5 | 5.92 | <5 | 0.776 nM | <5 | 1.2 nM | 1.02 nM | 7.24 nM | 7.77
COc1cc(OC)cc(N(Cc2ncc[nH]2)c2ccc3ncc(-c4cnn(C)c4)nc3n2)c1 [24-phosphate salt] | 7.74 | 8.42 | 1.23 nM | <5 | 6.05 | <5 | 0.708 nM | <5 | 1.02 nM | 0.832 nM | 14.5 nM | 7.47
COc1cc(OC)cc(N(Cc2ncc[nH]2)c2ccc3ncc(-c4cnn(C)c4)nc3n2)c1 [24-sulphate salt] | ~8.15 | 8.29 | 1.29 nM | <5 | 6.15 | <5 | 0.55 nM | <5 | 0.759 nM | ~0.912 nM | 13.2 nM | 7.57
